Consider 7 compounds from patent publication US6162417A, “Pyrrolo isoquinolines” (Emory University, priority 1998, dated 2000).

Structures are written as SMILES. Where two headings read alike, the source gives them in different places.

Data set [1] has as its target T1, human serotonin transporter (Homo sapiens, UniProt P31645).
T1 construct: expressed in transfected cells; host or cells: HEK-293, stably transfected
The data set can be described thus: Binding site inhibition in HEK-293 cell membranes transfected with human serotonin transporter ([3H]Citalopram).

A short description of data set [2]: Tissue distribution of radioactivity after intravenous administration (Table 6). In kind it is in vivo, Sprague Dawley rats. Conditions: rat, i.v., mean (range) of 4 rats; for tissue uptake at 0.5 h: 30 min; for tissue uptake at 1 h: 60 min; for tissue uptake at 2 h: 120 min. An excerpt: Distribution of Radioactivity in Tissues of Unfasted Male
Sprague Dawley Rats Following Intravenous Administration
of (+)-Trans-1,2,3,5,6,10b-hexahydro-6-
[4-iodophenyl]-pyrrolo[2,1-a]isoquinoline
Mean % Injected Dose/Gram (Range of 4 rats +/SD)

Data set [3] in a line: Regional brain distribution of radioactivity after intravenous administration (Table 4). In kind it is in vivo, Sprague-Dawley rats. To be noted: iv, rat, i.v., mean of three rats; for tissue uptake at 0.5 h: 30 min; for tissue uptake at 1 h: 60 min; for tissue uptake at 2 h: 120 min. From the text:
(§1) Regional Distribution of Radioactivity in Tissues of Unfasted
(§2) Male Sprague-Dawley Rats Following Intravenous Administration
(§3) iodophenyl)pyrrolo[2,1-a]isoquinoline
(§4) The cerebellum contains a very low density of serotonin transporter sites and is taken as "background" in this analysis of regional uptake.

Another data set concerns serotonin transporter. Described as above. In kind it is in vivo, Sprague-Dawley rats. Conditions: rat, i.v.
Source text: as §1, §2, §3, §4

Setting [4] is: HEK-293 cells, human serotonin transporter, vs. [3H]Citalopram, read-out: 5-HT Ki.
The mark [5] stands for this setting: blood, read-out: Blood, mean % injected dose/gram.
The mark [6] stands for this setting: brain, read-out: Brain, mean % injected dose/gram.
Setting [7] is: heart, read-out: Heart, mean % injected dose/gram.
Setting [8] is: kidney, read-out: Kidney, mean % injected dose/gram.
The mark [9] stands for this setting: liver, read-out: Liver, mean % injected dose/gram.
Where [10] appears, read: lung, read-out: Lung, mean % injected dose/gram.
[11] abbreviates: muscle, read-out: Muscle, mean % injected dose/gram.
Where [12] appears, read: spleen, read-out: Spleen, mean % injected dose/gram.
Setting [13] is: thyroid, read-out: Thyroid, mean % injected dose/gram.
Where [14] appears, read: cerebellum, read-out: Cerebellum, mean % injected dose/gram.
Where [15] appears, read: cortex, read-out: Cortex, mean % injected dose/gram.
The mark [16] stands for this setting: hypothalamus, read-out: Hypothalamus, mean % injected dose/gram.
Setting [17] is: prefrontal cortex, read-out: Prefrontal Cortex, mean % injected dose/gram.
Where [18] appears, read: striatum, read-out: Striatum, mean % injected dose/gram.

T1 sequence (P31645 whole entry): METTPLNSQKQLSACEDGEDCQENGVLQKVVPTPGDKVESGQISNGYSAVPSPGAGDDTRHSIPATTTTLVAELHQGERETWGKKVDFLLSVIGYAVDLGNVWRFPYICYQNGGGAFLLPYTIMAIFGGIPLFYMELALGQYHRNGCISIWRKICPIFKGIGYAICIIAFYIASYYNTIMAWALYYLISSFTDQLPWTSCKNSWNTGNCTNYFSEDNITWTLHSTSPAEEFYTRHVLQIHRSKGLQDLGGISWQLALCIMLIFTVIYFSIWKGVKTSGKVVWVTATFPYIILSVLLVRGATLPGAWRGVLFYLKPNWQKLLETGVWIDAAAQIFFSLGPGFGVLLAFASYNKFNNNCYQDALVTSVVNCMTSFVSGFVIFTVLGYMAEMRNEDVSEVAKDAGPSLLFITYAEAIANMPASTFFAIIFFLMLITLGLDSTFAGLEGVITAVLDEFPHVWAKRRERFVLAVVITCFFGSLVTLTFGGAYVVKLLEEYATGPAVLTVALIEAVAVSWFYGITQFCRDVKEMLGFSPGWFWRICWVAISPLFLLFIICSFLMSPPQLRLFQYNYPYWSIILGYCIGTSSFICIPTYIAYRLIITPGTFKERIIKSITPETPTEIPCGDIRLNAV

`FCCc1ccc([C@@H]2CN3CCC[C@@H]3c3ccccc32)cc1` (relative stereo) [racemic CH2 CH2 F]: in data set [1] (setting [4]), the Ki worked out at 13 nM.

For the compound `C=Cc1ccc([C@@H]2CN3CCC[C@@H]3c3ccccc32)cc1` (relative stereo) [racemic CH=CH2], the Ki in data set [1] was 3.7 nM.

Turning to `FCCSc1ccc([C@@H]2CN3CCC[C@@H]3c3ccccc32)cc1` (relative stereo) [racemic SCH2 CH2 F], the Ki in data set [1] (setting [4]) was 5.7 nM.

Take `FCCSc1ccc([C@@H]2CN3CCC[C@@H]3c3ccccc32)cc1` (single isomer, unassigned) [95% ee (+) SCH2 CH2 F]: in data set [1] (setting [4]), the Ki came to 2.6 nM.

Regarding `FCCSc1ccc([C@@H]2CN3CCC[C@@H]3c3ccccc32)cc1` (single isomer, unassigned) [95% ee (-) SCH2 CH2 F], in data set [1] (setting [4]), the Ki amounted to 6.4 nM.

Turning to `Ic1ccc([C@@H]2CN3CCC[C@@H]3c3ccccc32)cc1` [(+)-Trans-1,2,3,5,6,10b-hexahydro-6-[4-iodophenyl]-pyrrolo[2,1-a]isoquinoline], the tissue uptake at 0.5 h in data set [2] (setting [5]) was found to be 0.24 %ID/g; in data set [2] (setting [6]), 0.85 %ID/g; in data set [2] (setting [7]), 0.55 %ID/g; in data set [2] (setting [8]) it was 0.84 %ID/g; in data set [2] (setting [9]) it was 1.62 %ID/g; in data set [2] (setting [10]), 1.53 %ID/g. Further, the values for the tissue uptake at 0.5 h in data set [2] (setting [11]), in data set [2] (setting [12]) and in data set [2] (setting [13]) were 0.27 %ID/g, 1 %ID/g and 1.07 %ID/g, respectively. For the same compound, the tissue uptake at 1 h amounted to 0.3 %ID/g in data set [2] (setting [5]); 0.7 %ID/g in data set [2] (setting [6]); 0.51 %ID/g in data set [2] (setting [7]); 0.66 %ID/g in data set [2] (setting [8]); 1.26 %ID/g in data set [2] (setting [9]); 1.28 %ID/g in data set [2] (setting [10]). The tissue uptake at 1 h is 0.26 %ID/g in data set [2] (setting [11]), 0.74 %ID/g in data set [2] (setting [12]) and 1.5 %ID/g in data set [2] (setting [13]). For the same compound, the tissue uptake at 2 h in data set [2] (setting [5]) amounted to 0.21 %ID/g; in data set [2] (setting [6]), 0.43 %ID/g; in data set [2] (setting [7]), 0.47 %ID/g; in data set [2] (setting [8]), 0.79 %ID/g; in data set [2] (setting [9]), 1.18 %ID/g; in data set [2] (setting [10]), 0.92 %ID/g. Besides, the tissue uptake at 2 h in data set [2] (setting [11]) came out at 0.27 %ID/g; in data set [2] (setting [12]), 0.54 %ID/g; in data set [2] (setting [13]), 1.04 %ID/g.

`[123I]c1ccc([C@@H]2CN3CCC[C@@H]3c3ccccc32)cc1` [(+)-[^123 I]6, (+)-(6S, 10bR)-1,2,3,5,6,10b-hexahydro-6-(4'-[^123 I]iodophenyl)pyrrolo[2,1-a]-isoquinoline]: the tissue uptake at 5 min in data set [3] (setting [14]) came out at 1.23 %ID/g; in data set [3] (setting [15]), 2.06 %ID/g; in data set [3] (setting [16]) it was 3.69 %ID/g; in data set [3] (setting [17]) it was 5 %ID/g; in data set [3] (setting [18]) it was 3.43 %ID/g. Also, the tissue uptake at 0.5 h in data set [3] (setting [14]) turned out to be 0.78 %ID/g; in data set [3] (setting [15]), 1.6 %ID/g; in data set [3] (setting [16]), 3.59 %ID/g; in data set [3] (setting [17]) it was 3.72 %ID/g; in data set [3] (setting [18]), 2.46 %ID/g. Further, the tissue uptake at 1 h came to 0.58 %ID/g in data set [3] (setting [14]); 0.89 %ID/g in data set [3] (setting [15]); 3.73 %ID/g in data set [3] (setting [16]); 3.13 %ID/g in data set [3] (setting [17]); 2.28 %ID/g in data set [3] (setting [18]). Further, the tissue uptake at 2 h in data set [3] (setting [14]) came out at 0.39 %ID/g; in data set [3] (setting [15]), 0.74 %ID/g; in data set [3] (setting [16]), 2.85 %ID/g; in data set [3] (setting [17]), 2.25 %ID/g; in data set [3] (setting [18]), 2.06 %ID/g. Besides, in the data set on serotonin transporter, the “accumulation in brain regions” value was “greatest accumulation in brain regions rich in serotoninergic neurons”. Besides, the Cortex/Cereb ratio with serotonin transporter (5 min) is 1.7; with serotonin transporter (30 min), 2.1; with serotonin transporter (60 min) it was 1.6; with serotonin transporter (120 min), 1.9. Further, the Hypothal/Cereb ratio is on record as 3.0 in the data set on serotonin transporter (5 min), 4.6 in the data set with serotonin transporter (30 min), 6.5 in the data set with serotonin transporter (60 min) and 7.3 with serotonin transporter (120 min). The PrefCx/Cereb ratio is 4.1 in the data set with serotonin transporter (5 min), 4.8 in the data set on serotonin transporter (30 min), 5.4 with serotonin transporter (60 min) and 5.8 in the data set on serotonin transporter (120 min). The Striatum/Cereb ratio is 2.9 in the data set with serotonin transporter (5 min), 3.2 with serotonin transporter (30 min), 4.0 in the data set on serotonin transporter (60 min) and 5.3 in the data set on serotonin transporter (120 min).

Broadly, the Ki is the dissociation constant of the complex between target and ligand, obtained from inhibition or displacement.
